From patent US10028956B2, “Methods of treating various cancers using an AXL/cMET inhibitor in combination with other agents” (Ignyta, Inc., priority 2013, dated 2018)

Legend:
AXL [1] = molecular target: T1, AXL (Homo sapiens, UniProt P30530); assay: Cellular AXL inhibition in AXL-transfected 293GT cells; assay type: cell-based
T1 sequence (P30530 26-894): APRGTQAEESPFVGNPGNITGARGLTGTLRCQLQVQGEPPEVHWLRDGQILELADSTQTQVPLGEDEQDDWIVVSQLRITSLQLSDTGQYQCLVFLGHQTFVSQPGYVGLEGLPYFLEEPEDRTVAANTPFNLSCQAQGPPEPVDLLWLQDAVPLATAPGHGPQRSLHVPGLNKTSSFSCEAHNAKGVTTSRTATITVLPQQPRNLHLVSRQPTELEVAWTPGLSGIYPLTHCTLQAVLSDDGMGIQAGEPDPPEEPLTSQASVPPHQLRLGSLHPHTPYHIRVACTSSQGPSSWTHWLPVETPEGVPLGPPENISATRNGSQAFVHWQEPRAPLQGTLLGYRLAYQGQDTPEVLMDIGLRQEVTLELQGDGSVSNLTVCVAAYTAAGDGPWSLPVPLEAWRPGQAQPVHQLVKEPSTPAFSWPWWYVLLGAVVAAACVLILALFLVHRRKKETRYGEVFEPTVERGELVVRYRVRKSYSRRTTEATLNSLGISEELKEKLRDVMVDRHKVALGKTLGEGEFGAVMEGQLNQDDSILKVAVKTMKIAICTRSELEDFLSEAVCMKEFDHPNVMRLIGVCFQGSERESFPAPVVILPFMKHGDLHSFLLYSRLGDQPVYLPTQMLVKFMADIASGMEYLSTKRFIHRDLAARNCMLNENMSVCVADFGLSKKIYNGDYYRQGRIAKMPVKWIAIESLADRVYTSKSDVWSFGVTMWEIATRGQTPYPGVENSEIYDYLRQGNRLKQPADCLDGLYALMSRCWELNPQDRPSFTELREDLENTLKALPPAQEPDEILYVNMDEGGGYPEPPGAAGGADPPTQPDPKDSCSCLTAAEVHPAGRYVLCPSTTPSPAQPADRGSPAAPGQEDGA

AXL [2] = molecular target: T1, AXL; assay: Dissociation from AXL, LanthaScreen Eu-kinase binding assay
Protocol: Assay buffer was prepared as for association, and used for all dilutions. A 5-μL aliquot of 80 nM LanthaScreen Eu-anti-GST antibody:20 nM GST-tagged enzyme mix was added to the Greiner low volume white 384-well plate, with antibody only added to control wells. Compound (100 nL) in DMSO was added by pintool at 2000-fold over the final assay concentration. DMSO was added to no inhibitor control wells. After a one-hour incubation at ambient temperature to allow formation of the enzyme-inhibitor complex, 2 μL of the reaction mix was transferred to a 384 Optiplate (PerkinElmer) and 78 μL of kinase tracer 236 was added. The final tracer concentration was 100 nM for AXL and 200 nM for c-Met. Readings were immediately initiated and total of 60 time points were taken at 2-min intervals, at 25° C. or 37° C. The background subtracted ratio was normalized to the no inhibitor control to calculate the % tracer bound, which was plotted with respect to time. The data was fitted to the one phase association model in GraphPad Prism (La Jolla Calif.).

PK in monkey = details: in vivo
[3] = system: 4T1-Luc2 murine mammary carcinoma cells; assay: 4T1-Luc2 systemic dissemination; assay type: in vivo, mice
Protocol: The murine breast cancer cell line 4T1-luciferase tagged cell line generated by stable transfection of the firefly luciferase gene expressed from the SV40 promoter was purchased from Caliper Life Sciences. The cells were grown in DMEM medium supplemented with 10% fetal bovine serum (FBS, Cat^# SH3007003, Hyclone, Logan, Utah). D-Luciferin firefly/potassium salt (Cat. # L-8220) was purchased from Biosynth International, Inc., Itasca, Ill.). Female Balb-c mice (6-8 weeks) were purchased from Charles River laboratories. […] Two days later, the mouse body weights were measured twice a week and the mice were subjected for full body in vivo imaging thrice a week. Treatments were given for a total of 23 days, with 21 days post tumor cell seeding. Bioluminescence image analysis was performed at the end of the study using a Caliper Life Sciences (Xenogen) Spectrum in vivo imaging machine. Each cage of five mice was anesthetized using isofluorane and imaged for a series of time points from 0.5-5 minutes max. Image analysis was performed using Living Image Software (vs. 4.0, 2010) using subjective but equally sized gates or regions of interest (ROIs) overlaid on each animal image. Counts were converted to average radiance or mean photon flux; expressed as photons per second per cm2 of surface area, (p/s/cm2/sr). […]

AXL [4] = molecular target: T1, AXL; assay: Cellular potency in NCI-H1299 human NSCL cells; assay type: cell-based; set-up: endogenous in cells; host or cells: NCI-H1299 human NSCLC cells (culture; subcutaneous xenograft in mice)
AXL [5] = molecular target: T1, AXL; assay: AXL enzyme inhibition (recombinant enzyme); assay type: biochemical
PK in rat = details: in vivo
[6] = intravenous, 0.5 mg/kg i.v. and p.o.
[7] = intravenous, 1 mg/kg i.v. and 3 mg/kg p.o.

SMILES: COc1cc2nccc(Oc3ccc(NC(=O)c4cn(C(C)C)c(=O)n(-c5ccc(F)cc5)c4=O)cc3F)c2cc1OC [CEP-40783, 3-(4-Fluorophenyl)-1-isopropyl-2,4-dioxo-1,2,3,4-tetrahydropyrimidine-5-carboxylic acid [4-(6,7-dimethoxyquinolin-4-yloxy)-3-fluorophenyl]-amide]
- IC50 (AXL [1]): 0.26 nM
- off-rate from AXL (AXL [2]; 25° C.): very slow
- dissociation rate from AXL at higher temperature (AXL [2]; 37° C. versus 25° C.): slightly enhanced
- Cmax (PK in monkey; 0.5 mg/kg i.v. and p.o.): 260 ng/mL
- Vd (PK in monkey; [6]): 1.2 L/kg
- clearance (PK in monkey; [6]): 2.2 mL/min/kg
- half-life (PK in monkey; iv, 0.5 mg/kg i.v., read-out: t1/2 i.v. (converted)): 14.5 h
- bioavailability (PK in monkey; oral, 0.5 mg/kg i.v. and p.o.): 77%
- AUC(0-t) (PK in monkey; po, 0.5 mg/kg p.o.): 3030 ng·h/mL
- systemic 4T1 mammary tumor dissemination ([3]; 1 mg/kg po qd): significant, albeit of lesser magnitude, reduction
- systemic 4T1 mammary tumor dissemination ([3]; 10 mg/kg and 30 mg/kg po qd): highly significant reductions
- IC50 (AXL [4]): 0.1 nM
- IC50 (AXL [5]): 7 nM
- Cmax (PK in rat; 1 mg/kg i.v. and 3 mg/kg p.o.): 593 ng/mL
- Vd (PK in rat; [7]): 2.6 L/kg
- clearance (PK in rat; [7]): 1.4 mL/min/kg
- half-life (PK in rat; iv, 1 mg/kg i.v., read-out: t1/2 i.v. (converted)): 21.5 h
- bioavailability (PK in rat; oral, 1 mg/kg i.v. and 3 mg/kg p.o.): 57%
- AUC(0-t) (PK in rat; po, 3 mg/kg p.o.): 16300 ng·h/mL
